According to patent US5418235A, “Aminoalkyl-substituted 5-mercaptothiazoles, the preparation and use thereof” (BASF Aktiengesellschaft, priority 1991, dated 1995):
Counter-ions that a name gives are not always drawn. Like-named read-outs stand apart in the source and are kept apart here.

Target: dopamine D2 receptor (Rattus norvegicus, UniProt P61169)
Assay: Receptor binding assay, 3H-ADTN displacement on rat striatal membranes (affinity for the dopamine D2 receptor)
Set-up: species or system rat (Sprague Dawley)
[1] = rat striatal membranes, 1 nM 3H-ADTN, 0.1 μM SCH 23390, 40 min at 25° C., non-specific binding with 50 nM spiperone, read-out: Ki, affinity of the test substances for the dopamine D2 receptor

Sequence of dopamine D2 receptor (P61169 whole entry): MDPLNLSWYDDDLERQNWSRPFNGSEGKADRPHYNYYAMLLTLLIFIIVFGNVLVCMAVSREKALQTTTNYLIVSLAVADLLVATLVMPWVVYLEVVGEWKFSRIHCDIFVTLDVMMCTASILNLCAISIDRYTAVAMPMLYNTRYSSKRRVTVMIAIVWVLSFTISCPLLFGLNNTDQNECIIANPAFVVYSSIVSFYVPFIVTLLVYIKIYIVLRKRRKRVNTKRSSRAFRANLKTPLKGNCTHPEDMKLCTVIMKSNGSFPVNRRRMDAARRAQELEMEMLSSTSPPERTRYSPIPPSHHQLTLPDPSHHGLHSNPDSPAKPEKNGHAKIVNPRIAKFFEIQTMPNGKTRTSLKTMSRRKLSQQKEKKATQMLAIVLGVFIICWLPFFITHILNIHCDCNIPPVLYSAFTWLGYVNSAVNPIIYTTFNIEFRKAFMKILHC
Description: Striata from rats (Sprague Dawley, Charles River) were homogenized immediately after removal in 0.32M sucrose solution (0° C.). The homogenate was filtered through gauze, the filtrate was centrifuged at 1000 ×g (5 min at 4° C.) and the resulting supernatant was centrifuged at 40000 ×g (4° C., 10 min). The residue (membranes) was taken up in incubation buffer (50 mM tris-HCl, 1 mM MgCl2 and 0.1% ascorbic acid, pH 7.4) and incubated at 37° C. for 20 min. The residue was subsequently washed 2× with incubation buffer by resuspension and recentrifugation. The membranes were frozen in portions in liquid nitrogen.
The assay mixtures (1 ml) were composed of membranes (380 μg of protein), 1 nM ^3 H-ADTN (NEN, Dreieich Germany, specific radioactivity 1.4 TBq/mmol) and 0.1 μM SCH 23390 (total binding) or a) with the addition of 50 nM spiperone (non-specific binding) or b) with test substance. The mixtures were prepared in triplicate.
After the incubation (40 min at 25° C.) the mixtures were filtered through glass fiber filters (Whatman GF/B) and briefly washed with ice-cold washing buffer (tris-HCl, pH 7.4). The radioactivity retained on the filters was determined by liquid scintillation counting. The non-specific binding comprised about 40-50% of the total binding.
The evaluation of the competition plots and the determination of the dissociation constant took place by iterative non-linear regression analysis based on the "ligand" program (Muson and Rodbard: Anal. Biochem. 107 (1980) 220).

Compound | Ki [1] [nM] | Ki [nM]
Cc1nc(N)sc1SCCN1CCN(c2ccccc2)CC1 [Example 3, 2-Amino-4-methyl-5-[2-(4-phenylpiperazinyl)ethylthio]thiazole hydrochloride] | 19 | 
Cc1nc(N)sc1SCCN1CC=C(c2ccccc2)CC1 [Example 2, 2-Amino-5-[2-(1,2,3,6-tetrahydro-4-phenylpyridinyl)-ethylthio]-4-methylthiazole hydrochloride] |  | 3
Cc1nc(N)sc1SCCN1CCC(c2ccccc2)CC1 [Example 1, 2-Amino-4-methyl-5-[2-(4-phenylpiperidinyl)ethyl-thio]thiazole hydrochloride] | 12 | 

Now from value to compound, other results behind:

Ki [1] [nM] | Compound | Ki [nM]
18 | CCCN(CCSc1sc(N)nc1C)CCc1ccccc1 [Example 5, 2-Amino-4-methyl-5-[2-(N-phenethyl-N-propylamino)-ethylthio]thiazole hydrochloride] | 
9 | CCCN(CCCSc1sc(N)nc1C)CCc1ccccc1 [Example 7, 2-Amino-4-methyl-5-[3-(N-phenethyl-N-propylamino)propylthio]thiazole tartrate] | 
